The values below come from US20220280581A1, “BENEFICIAL BACTERIA AND SECRETORY IMMUNOGLOBULIN A” (priority 2019, published 2022).

Assay [1] has as its system Caco-2 colonic cells co-cultured with HT29-MTX E12 cells. Description: Bacterial adherence to colonocyte co-cultures. In kind it is cell-based, human. Here is the method:
(§1) Mammalian cell culture binding assays: Caco-2 colonic cells were co-cultured with HT29-MTX E12 cells at a ratio of 3:1 and seeded at a density of 5×10^4 cells/well in 24-well plates, maintained as described above. On day 1 post-confluence, medium was removed, the cells washed once with PBS, and DMEM without FBS or antibiotics was added prior to binding assay. Bacteria were prepared as described above, with or without SIgA and resuspended in PBS at 1×10^7 CFU/mL. 4×10^5 CFU were added to the colonocytes and the plate was centrifuged at 600×g for 5 min to ensure bacteria association with the cells. After 2 h of incubation at 37° C. in 5% CO2, medium was removed and saved for cytokine analysis. Cells were washed once with PBS, and to one set of replicates, cells were lysed with 0.5% Triton X-100 and serial dilutions of the cell suspensions were plated on MRS and incubated anaerobically at 37° C. overnight to test viability. To a second set of replicates, TRIzol (15596018; Life Technologies) was added directly to washed cells for RNA extraction.

Assay [2] is described as follows: Protection from simulated gastric digestion in vitro (pepsin, pancreatin): viability by CFU plating and live/dead flow cytometry. As to conditions: for Slope (CFU/% SIgA): regression of viable CFU post-digestion on SIgA association. Here is the method:
(§2) Flow cytometry and immunofluorescence: To measure binding cells were fixed using 4% w/v paraformaldehyde for 30 min, washed with PBS, then incubated with 1% bovine serum albumin (BSA) blocking buffer for 1 h. Cells were stained with 1/100 dilution SYTOT™ 9 (S34854, ThermoFisher) for live cells and goat anti-human IgA conjugated to Alexa 647 fluorophore using 1/50 dilution in 1% BSA (ab96998, Abcam). For flow cytometry, all samples were acquired and analyzed on a FACScan flow cytometer (BD Biosciences, Mountain View, Calif.) using the CellQuest software program. For live/dead analyses following in vitro digestion, cells were stained with SYTOT™ 9 (1/100 dilution) for live cells and propidium iodine (1/1000 dilution) for dead cells or cells with compromised membranes.
Protection from digestion using an in vitro model. To determine the extent to which the SIgA-glycan-mediated-bacterial complexes that included the Ig-bound secretory component (SC) where able to protect bacteria and SIgA from proteolytic degradation, an in vitro model was used. Simulated gastric digestion was performed by resuspending bacteria in 200 ul of 0.1% porcine pepsin (Sigma—Aldrich, St. Louis, Mo.) in PBS at pH 4. Samples were placed in an incubating shaker (New Brunswick Scientific, Edison, N.J.) at 140 rpm at 37° C. for 15 min. Cells were then pelleted and resuspended in 200 ul of 0.04% pancreatin (Sigma— Aldrich) in PBS pH 7, and the samples placed in the incubator shaker at 140 rpm at 37° C. for 5 min. Bacteria were pelleted and washed twice with PBS to remove residual enzymes, then evaluated for viability through CFU serial dilution and spot plating, and with live/dead flow cytometry analysis.

Assay [3] has as its system pooled human milk SIgA. Briefly: Binding of SIgA to bacteria by flow cytometry. The settings on record: 100 μg SIgA to 1e6 cfu bacteria. (In general: Flow cytometry measures light scatter and fluorescence of single cells or particles in a stream.)
Assay [4] has as its system pooled human milk SIgA. Briefly: Binding of SIgA to bacteria by flow cytometry. The settings on record: for binding of a heterogeneous pool of SIgA: 0-1000 μg SIgA per 1e7 CFU; for association to SIgA when first grown on 2′FL: 1% 2′FL in the final media. Here is the method:
Binding of sIgA to bacteria. Bacteria from Table 1 were resuspended in 0.8% saline at a concentration of 1×10^7 CFU/mL. SIgA was then added at 0, 10, 100, 500 and 1000 μg per 1×10^7 colony forming units (CFU) of bacteria and incubated at 24° C. for 30 min. Following incubation, bacteria were pelleted at 14000×g for 4 min and washed with saline twice to remove non-adherent SIgA.
as §2

In another assay the test system is SIgA. Description: Loss of SIgA-bacteria association after deglycosylation. In kind it is binding.
Assay [5] has as its system colonocytes (Caco-2 / HT29-MTX E12 co-culture). Description: Colonocyte barrier function and immune gene expression (RT-qPCR). In kind it is cell-based, human. The settings on record: 1000 μg SIgA per 1e7 CFU vs no SIgA. The procedure: as §1
Mammalian cell culture RT-qPCR for gene expression: Total RNA from mammalian co-culture samples were extracted via the TRIzol method. Total RNA (1 μg) was treated with Turbo DNAse (EN0521; Thermo Fisher) to remove genomic DNA, then used for reverse transcription producing cDNA, performed according to manufacturer protocol (High Capacity Complementary DNA Reverse Transcription Kit; Applied Biosystems). Gene list and primer sequences can be found in Table 2. Real-time PCR was performed with the Quantistudio 3 qPCR thermocycler (Applied Biosystems) using SyberGreen master mix (Life Technologies). Actin and GADPH were used as house-keeping genes. Analysis was performed using Quantistudio Design and Analysis Software v.1.4.3.
On the technique in general: Quantitative PCR measures a nucleic acid by following its amplification.

Regarding Bifidobacterium bifidum SC555, the “Slope (adherent CFU/% SIgA association)” value in assay [1] (substrate 2'FL) was 16.9 adherent CFU/% SIgA associatio; in assay [1] (substrate all), 896.4 adherent CFU/% SIgA associatio; in assay [1] (substrate glucose), 2288.0 adherent CFU/% SIgA associatio.

Consider Bifidobacterium breve SC95, for which the entries for the “live bacteria post-digestion (live-dead flow cytometry)” value in assay [2] (1000 μg SIgA/1e7 CFU) and in assay [2] (no SIgA) were 57.8% and “no viable bacteria”, respectively. For the same substance, the figures for the “Slope (CFU/% SIgA)” value in assay [2] (substrate LNnT) and in assay [2] (substrate lactose) were 223.1 CFU/% SIgA and −106.9 CFU/% SIgA, respectively. Moreover, the “Slope (adherent CFU/% SIgA association)” value is given as 19516.0 adherent CFU/% SIgA associatio in assay [1] (substrate LNnT), 13289.0 adherent CFU/% SIgA associatio in assay [1] (substrate all), 9083.0 adherent CFU/% SIgA associatio in assay [1] (substrate glucose) and 4617.0 adherent CFU/% SIgA associatio in assay [1] (substrate lactose). Besides, the “ability to bind to pooled human milk SIgA” value in the assay on pooled human milk SIgA [3] was determined as 16%. For the same substance, in the assay with pooled human milk SIgA [3], the “increase in SIgA binding when first grown on an HMO substrate” value is 45%.

With “Bifidobacterium longum ssp. longum SC596”, in the assay with pooled human milk SIgA [4], the “binding of a heterogeneous pool of SIgA” value is on record as “concentration dependent”. Moreover, in the assay with pooled human milk SIgA [4], the “association to SIgA when first grown on 2′FL” value is recorded as “increased association to SIgA”. The “live bacteria post-digestion (live-dead flow cytometry)” value in assay [2] (1000 μg SIgA/1e7 CFU) was 50.85%; in assay [2] (no SIgA), 29.05%. Moreover, the “increased adherence to colonocytes with SIgA association” value in assay [1] (first grown on 2′FL) came to 4e3. For the same substance, the “Slope (adherent CFU/% SIgA association)” value in assay [1] (substrate 2'FL) is 37.7 adherent CFU/% SIgA associatio; in assay [1] (substrate all), 27.1 adherent CFU/% SIgA associatio; in assay [1] (substrate glucose) it was 28.5 adherent CFU/% SIgA associatio; in assay [1] (substrate lactose), −13.3 adherent CFU/% SIgA associatio.

As for Bifidobacterium pseudocatenulatum MP80, the “association to SIgA when first grown on 2′FL” value with pooled human milk SIgA [4] is listed as “increased association to SIgA”. The viable bacteria post-digestion in assay [2] (grown on glucose, 100 or 1000 μg SIgA/1e7 CFU) is reported as 4e6; in assay [2] (grown on glucose, no SIgA), 2e5 CFU. The “slope of regression plot of viability with SIgA association” value in assay [2] (post-digestion, grown on glucose) is listed as 8.2e4 CFU per % population SIgA association. Moreover, the “Slope (CFU/% SIgA)” value in assay [2] (substrate 2′FL) is on record as 51114 CFU/% SIgA; in assay [2] (substrate glucose), 82548 CFU/% SIgA. Moreover, the “Slope (adherent CFU/% SIgA association)” value in assay [1] (substrate 2'FL) is reported as −50.6 adherent CFU/% SIgA associatio; in assay [1] (substrate all), 32.0 adherent CFU/% SIgA associatio; in assay [1] (substrate glucose), 14.2 adherent CFU/% SIgA associatio. Further, the “ability to bind to pooled human milk SIgA” value in the assay on pooled human milk SIgA [3] came out at 40.3%. In addition, the “increase in SIgA binding when first grown on an HMO substrate” value in the assay on pooled human milk SIgA [3] is given as 61.7%.

With Lactobacillus acidophilus NCFM, the “slope m of association to SIgA post-digestion” value in assay [2] (grown on glucose) is −8.9e3 CFU/% SIgA association. Besides, the entries for the “Slope (CFU/% SIgA)” value in assay [2] (substrate glucose) and in assay [2] (substrate lactose) were −8952 CFU/% SIgA and 38918 CFU/% SIgA, respectively. The “Slope (adherent CFU/% SIgA association)” value in assay [1] (substrate all) is listed as −3134.0 adherent CFU/% SIgA associatio; in assay [1] (substrate glucose), −3014.0 adherent CFU/% SIgA associatio; in assay [1] (substrate lactose), −3341.0 adherent CFU/% SIgA associatio.

With Lactobacillus reuteri DSM, the “slope m of association to SIgA post-digestion” value in assay [2] (grown on glucose) is −3.9e4 CFU/% SIgA association. For the same substance, the “Slope (CFU/% SIgA)” value in assay [2] (substrate glucose) is −38517 CFU/% SIgA; in assay [2] (substrate lactose), 47155 CFU/% SIgA. Besides, the entries for the “Slope (adherent CFU/% SIgA association)” value in assay [1] (substrate all), in assay [1] (substrate glucose) and in assay [1] (substrate lactose) were −4652.0 adherent CFU/% SIgA associatio, −9455.0 adherent CFU/% SIgA associatio and 524.1 adherent CFU/% SIgA associatio, respectively. In addition, in the assay with SIgA, the “loss of SIgA-bacteria complexes after deglycosylation” value is given as “over 7%”.

For Lactobacillus rhamnosus ATCC 7469, in the assay with pooled human milk SIgA [4], the “binding of a heterogeneous pool of SIgA” value is reported as “concentration dependent”. For the same substance, the “difference post-digestion with or without SIgA” value in assay [2] (grown in 1% glucose) was “no significant difference”. Further, the “Slope (CFU/% SIgA)” value in assay [2] (substrate 2′FL) was −39446 CFU/% SIgA; in assay [2] (substrate glucose), −2121 CFU/% SIgA; in assay [2] (substrate lactose) it was −23719 CFU/% SIgA. Also, the “slope of regression plot of adherent bacteria with SIgA association” value in assay [1] (lactose-grown) was 37.7 adherent CFU per % population associated with SIgA. In addition, the “Slope (adherent CFU/% SIgA association)” value in assay [1] (substrate 2'FL) is reported as 333.3 adherent CFU/% SIgA associatio; in assay [1] (substrate glucose) it was −138.4 adherent CFU/% SIgA associatio; in assay [1] (substrate lactose), 456.6 adherent CFU/% SIgA associatio. The “decrease of IL-8 gene expression when first complexed with SIgA” value in assay [5] is given as 4 fold. Further, the “decrease of pIgR gene expression when first complexed with SIgA” value in assay [5] was 4 fold.
